Format in all cases: cell-based
Assay [1] concerns the target T1, human glucocorticoid receptor (GR) (Homo sapiens (Human), UniProt P04150). The assay can be described thus: GRE Agonist Assay (ChagoK1 18:7:2 s4/GRE MMTV-GRE-LacZ reporter cell line). As to conditions: for Emax at 1 µM: ChaGo-K-1, relative to full agonist effect of dexamethasone, read-out: TA agonist Observed max Effect at 1 μM (%); for TA agonist pEC50: transactivation in agonist mode, ChagoK1 GRE-LacZ reporter cells, 24 hours. An excerpt: GRE Agonist Assay A reporter cell line (ChagoK1 18:7:2 s4/GRE) was established by stable transfection of the human bronchogenic carcinoma cell line, ChaGo K1 (ATCC: HTB 168) with a MMTV-GRE-LacZ reporter construct. The generated cell line allows for identification of compounds showing agonist activity at the human glucocorticoid receptor (GR) via induction of LacZ gene expression. Ligand-activated GR binds to the Glucocorticoid Response Element (GRE) in the promoter of the LacZ gene and transcription is initiated. The resulting beta-galactosidase activity is measured through a colour reaction (change in absorbance). Cryo-preserved ChagoK1 18:7:2 s4/GRE cells were suspended in RPMI medium with 10% FBS, 1% NEAA and 1% sodium pyruvate, and seeded as 50000 cells/200 ul/well in 96-well plates and cultured at 37° C. with 5% CO2 and 95% humidity for 24 hours. 1 μl compound was added at different concentrations to the cells and incubated for another 24 hours. […] The reaction was then terminated by addition of 100 μl stop solution (300 mM glycine, 15 mM EDTA, pH 11.3, adjusted with NaOH). […]) Where A=min Y, B=max Y, C=log EC50 and D=Slope factor

For assay [2], the target named is T1, human glucocorticoid receptor (GR). The assay can be described thus: GRE Antagonist Assay (ChagoK1 18:7:2 s4/GRE reporter cells pre-stimulated with dexamethasone). As to conditions: for Emax at 1 µM: ChaGo-K-1, relative to full antagonist effect of Mifepristone (RU486), read-out: TA antagonist Observed max Effect at 1 μM (%); for TA antagonist pIC50: transactivation in antagonist mode, pre-stimulated with dexamethasone 70 nM. An excerpt:
GRE Antagonist Assay A reporter cell line (ChagoK1 18:7:2 s4/GRE) was established by stable transfection of the human bronchogenic carcinoma celline, ChaGo K1 (ATCC: HTB 168) with a MMTV-GRE-LacZ reporter construct. The generated cell line allows for identification of compounds showing antagonist activity at the human glucocorticoid receptor (GR) via reduction of LacZ gene expression. Dexamethasone-activated GR binds to the Glucocorticoid Response Element (GRE) in the promoter of the LacZ gene and transcription is initiated. Antagonistic properties of compounds are assessed as beta-galactosidase intensity reduction from pre-stimulation with dexamethasone through a colour reaction (change in absorbance). Cryo-preserved ChagoK1 18:7:2 s4/GRE cells were suspended in RPMI medium with 10% FBS, 1% NEAA and 1% sodium pyruvate, and seeded as 50000 cells/200 ul/well in 96-well plates and cultured at 37° C. with 5% CO2 and 95% humidity for 24 hr. […] The reaction was then terminated by addition of 100 μl stop solution (300 mM glycine, 15 mM EDTA, pH 11.3, adjusted with NaOH). The plates were measured at 420 nm for absorbance in a SpectraMax reader (Molecular Device). […]) Where A=min Y, B=max Y, C=log IC50 and D=Slope factor

Assay [3] deals with release of TNFα from whole blood stimulated with LPS. Description: In Vitro Human Whole Blood: inhibition of TNFα release from whole blood stimulated with LPS. Particulars: LPS 30 μg/mL, 18 hr, read-out: TNFα pIC50 (converted). Here is the method: In Vitro Human Whole Blood
Venous blood from human donors was collected and anti-coagulated with sodium heparin and transferred to a sterile polystyrene round bottomed plate (Corning) at 190 μL per well.
Control wells received 1 μL DMSO only and the final DMSO concentration in all wells was 0.5%.
10 μL was added to each well to give a final LPS concentration of 30 μg/mL. Unstimulated controls received PBS only at 10 μL/well. The samples were, again, gently mixed, and the plates incubated overnight for 18 hr. Following incubation, the blood was centrifuged at 700×g for 5 min, and the plasma removed and transferred to freeze at −20° C. before assay for TNFα release.
TNFα protein levels were determined using an AlphaLISA hTNFa kit (Perkin Elmer) according to the manufacturer's instructions. Briefly, the samples were allowed to return to room temperature and centrifuged at 1500×g for 5 min. Samples were diluted 1/5 (5 μL sample in 20 μL AlphaLISA buffer). At the same time, a standard curve of TNFα was prepared by serial 1/3 dilutions from a stock solution (5000-2 pg/mL). 5 μL sample/standard curve were transferred to a 384-well Optiplate™, and to this was added 20 μL anti-humanTNFa acceptor beads/biotinylated antibody mix. The plate was incubated at room temperature for 60 min. After this incubation, 25 μL streptavidin donor beads were added, and the plate was incubated for a further 60 min in the dark at room temperature. […] TNFα in the samples was determined by extrapolation from the standard curve and expressed as pg/mL.
Percent inhibition was plotted against concentration, and a curve graphed using a 4-parameter curve fit (Xlfit 4.1) to determine the pIC50.

Assay [4] concerns tyrosine aminotransferase (TAT) mRNA expression in human hepatocytes. The assay can be described thus: Tyrosine Aminotransferase (TAT) mRNA Expression In Vitro Assay in human primary hepatocytes. As to conditions: 18 hr, fold change vs DMSO control. The procedure:
Tyrosine Aminotransferase (“TAT”) mRNA Expression In Vitro Assay
The impact of test compounds on hyperglycemic events were assessed by looking at changes in mRNA expression of the gene encoding tyrosine aminotransferase (TAT), which is under direct regulation of the glucocorticoid receptor in human hepatocytes.
Human cryopreserved primary hepatocytes (BioreclamationIVT, M00995-P lot EPB) were plated to 24-well collagen I-coated plates (Becton Dickinson, 354408). Cells were allowed to attach for 4 hr before being challenged with test compounds overnight (18 hr). Cells were harvested and total RNA isolated using RNeasy Plus Mini Kit (Qiagen, 74136) followed by cDNA synthesis using High Capacity cDNA reverse transcription kit (Applied Biosystems, 4368813). Real-time RT PCR was performed on an Applied Biosystems 7500 PCR cycler, using Taqman primers for TAT (Life technologies, Hs00356930_m1) and the reference gene hypoxanthine phosphoribosyltransferase 1 (Life technologies, Hs99999909_m1).
Human cryopreserved primary hepatocytes were transferred in to pre-warmed (37° C.) plating medium (BioreclamationIVT, Z990003) and diluted to 0.7×10^6 viable cells/mL. 500 µL of the cell suspension was plated to each well of a collagen I coated 24-well plate and cells were allowed to sediment and attach at 37° C. for 4 hr. After incubation, the media was gently discarded and exchanged for insulin, glucose, glutamine, pyruvate free media (BioreclamationIVT, S00304), containing compounds of interest, prednisolone at 1 μM, dissolved in DMSO (final DMSO concentration 0.01%), or DMSO alone as control. The plates were then incubated at 37° C. for an additional 18 hr. Media was discarded, and total RNA isolation (Qiagen) and cDNA synthesis (Applied Biosystems) performed according to the manufactures protocol. Real-time RT PCR was carried out using TaqMan reagents (Life technologies) on the 7500 PCR cycler, and Ct-values for TAT gene expression was normalised to the control gene and expressed as fold change compared to DMSO control using the 2^−ΔΔCt method.

T1 sequence (P04150 whole entry): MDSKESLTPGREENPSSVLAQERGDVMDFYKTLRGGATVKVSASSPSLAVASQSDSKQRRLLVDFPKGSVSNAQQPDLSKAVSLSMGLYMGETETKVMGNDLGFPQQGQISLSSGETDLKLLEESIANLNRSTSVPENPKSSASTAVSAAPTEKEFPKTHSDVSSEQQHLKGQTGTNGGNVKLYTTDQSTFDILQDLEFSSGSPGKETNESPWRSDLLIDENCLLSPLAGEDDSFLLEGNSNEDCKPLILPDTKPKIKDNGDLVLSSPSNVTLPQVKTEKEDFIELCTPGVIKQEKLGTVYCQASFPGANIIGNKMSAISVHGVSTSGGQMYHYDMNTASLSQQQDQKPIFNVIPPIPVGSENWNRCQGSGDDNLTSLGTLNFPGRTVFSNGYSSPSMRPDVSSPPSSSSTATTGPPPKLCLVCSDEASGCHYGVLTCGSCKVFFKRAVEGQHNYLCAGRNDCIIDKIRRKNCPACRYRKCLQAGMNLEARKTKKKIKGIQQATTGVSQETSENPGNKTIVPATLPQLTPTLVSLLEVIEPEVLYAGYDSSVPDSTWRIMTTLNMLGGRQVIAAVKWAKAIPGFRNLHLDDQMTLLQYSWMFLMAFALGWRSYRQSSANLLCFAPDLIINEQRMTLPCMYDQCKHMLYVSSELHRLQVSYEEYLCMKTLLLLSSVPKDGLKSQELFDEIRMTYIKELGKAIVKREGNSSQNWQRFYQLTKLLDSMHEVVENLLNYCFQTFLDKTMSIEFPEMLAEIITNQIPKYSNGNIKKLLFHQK

In the case of `CC(C)[C@H](NC(=O)C(C)(F)F)[C@H](Oc1ccc2c(cnn2-c2ccc(=O)n(C)c2)c1)c1ccccc1` [Example 1, 2,2-difluoro-N-[(1R,2S)-3-methyl-1-{[1-(1-methyl-6-oxo-1,6-dihydropyridin-3-yl)-1H-indazol-5-yl]oxy}-1-phenylbutan-2-yl]propanamide], in assay [1], the Emax at 1 µM was 36% and the “TA agonist pEC50” value was 8.0. For the same compound, in assay [2], the Emax at 1 µM came to 56% and the “TA antagonist pIC50” value was found to be 6.8. In addition, the IC50 in assay [3] was 0.631 µM. In addition, the “Fold Change Tyrosine Aminotransferase Gene Expression Relative to Control (1 μM)” value in assay [4] is 1.0 (0.8-1.4, n = 8).
With `C[C@]12C=CC(=O)C=C1CC[C@@H]1[C@@H]2[C@@H](O)C[C@@]2(C)[C@H]1CC[C@]2(O)C(=O)CO` [Prednisolone, prednisolone, reference compound], the IC50 in assay [3] was 0.251 µM. In addition, in assay [4], the “Fold Change Tyrosine Aminotransferase Gene Expression Relative to Control (1 μM)” value was 2.8 (1.3-5.3, n = 10).
`CC(C)[C@H](NC(=O)C(F)(F)F)[C@H](Oc1ccc2c(cnn2-c2ccc(=O)n(C)c2)c1)c1cccc(Cl)c1` [Example 6, N-[(1R,2S)-1-(3-chlorophenyl)-3-methyl-1-{[1-(1-methyl-6-oxo-1,6-dihydropyridin-3-yl)-1H-indazol-5-yl]oxy}butan-2-yl]-2,2,2-trifluoroacetamide]: in assay [1], the Emax at 1 µM is 24% and the “TA agonist pEC50” value is listed as 8.6. In addition, in assay [2], the Emax at 1 µM was determined as 67% and the “TA antagonist pIC50” value amounted to 7.3. Besides, the IC50 in assay [3] is 0.398 µM. Further, the “Fold Change Tyrosine Aminotransferase Gene Expression Relative to Control (1 μM)” value in assay [4] was 0.9 (n = 1).
Take `CC(C)[C@H](NC(=O)C(C)(F)F)[C@H](Oc1ccc2c(cnn2-c2ccc(=O)n(C)c2)c1)c1ccc(C(F)(F)F)cc1` [Example 10, 2,2-difluoro-N-{(1R,2S)-3-methyl-1-{[1-(1-methyl-6-oxo-1,6-dihydropyridin-3-yl)-1H-indazol-5-yl]oxy}-1-[4-(trifluoromethyl)phenyl]butan-2-yl}propanamide]: in assay [1], the Emax at 1 µM came to 40% and the “TA agonist pEC50” value was 8.1. Moreover, in assay [2], the Emax at 1 µM stood at 51% and the “TA antagonist pIC50” value came to 7.0.
In the same order, the values of `Cc1cc2c(cnn2-c2ccc(=O)n(C)c2)cc1O[C@H](c1ccccc1)[C@@H](NC(=O)C(C)(F)F)C(C)C` [Example 12, 2,2-difluoro-N-[(1R,2S)-3-methyl-1-{[6-methyl-1-(1-methyl-6-oxo-1,6-dihydropyridin-3-yl)-1H-indazol-5-yl]oxy}-1-phenylbutan-2-yl]propanamide] are 46%, 8.4, 48% and 7.1.
Taken in the same sequence, the figures for `CC(C)[C@H](NC(=O)C(F)(F)F)[C@H](Oc1cc2cnn(-c3ccc(=O)n(C)c3)c2cc1Cl)c1ccccc1` [Example 22, N-[(1R,2S)-1-{[6-chloro-1-(1-methyl-6-oxo-1,6-dihydropyridin-3-yl)-1H-indazol-5-yl]oxy}-3-methyl-1-phenylbutan-2-yl]-2,2,2-trifluoroacetamide] were 37%, 8.5, 56% and 7.3.
Taken in the same sequence, the figures for `CC(C)[C@H](NC(=O)C(C)(F)F)[C@H](Oc1ccc2c(cnn2-c2ccc(=O)n(C)c2)c1)c1cccc(Cl)c1` [Example 5, N-[(1R,2S)-1-(3-chlorophenyl)-3-methyl-1-{[1-(1-methyl-6-oxo-1,6-dihydropyridin-3-yl)-1H-indazol-5-yl]oxy}butan-2-yl]-2,2-difluoropropanamide] were 28%, 8.6, 72% and 6.7.
`CC(C)[C@H](NC(=O)C(C)(F)F)[C@H](Oc1ccc2c(cnn2-c2ccc(=O)n(C)c2)c1)c1cc(F)cc(F)c1` [Example 3, N-[(1R,2S)-1-(3,5-difluorophenyl)-3-methyl-1-{[1-(1-methyl-6-oxo-1,6-dihydropyridin-3-yl)-1H-indazol-5-yl]oxy}butan-2-yl]-2,2-difluoropropanamide]: in assay [1], the Emax at 1 µM was found to be 44% and the “TA agonist pEC50” value is on record as 8.6. Moreover, in assay [2], the Emax at 1 µM is 53% and the “TA antagonist pIC50” value stood at 7.6. Also, the IC50 in assay [3] is 0.1 µM. In addition, the “Fold Change Tyrosine Aminotransferase Gene Expression Relative to Control (1 μM)” value in assay [4] is 1.5 (1.4-1.55, n = 2).
With `CC(C)[C@H](NC(=O)C(F)(F)F)[C@H](Oc1ccc2c(cnn2-c2ccc(=O)n(C)c2)c1)c1ccc(Cl)c(F)c1` [Example 17, N-[(1R,2S)-1-(4-chloro-3-fluorophenyl)-3-methyl-1-{[1-(1-methyl-6-oxo-1,6-dihydropyridin-3-yl)-1H-indazol-5-yl]oxy}butan-2-yl]-2,2,2-trifluoroacetamide], in assay [1], the Emax at 1 µM worked out at 32% and the “TA agonist pEC50” value is recorded as 8.4. In assay [2], the Emax at 1 µM is 79% and the “TA antagonist pIC50” value came out at 7.4.

The values are drawn from patent publication US10196374B2 (AstraZeneca AB, priority 2014, dated 2019).
